Peptide text beside a SMILES is read from it.

The nature of data set [1]: Solubilization test (time for complete dissolution in water). Particulars: 250 mg ground sample in 250 ml pure water at 26 ± 2°C, stirred at 350 to 360 rpm, stirring and standing repeated every 30 seconds. The data set is classed as physicochemical. How it is done: The present invention will be described in detail in the following examples, in which the solubilization test was carried out by the following procedure: Solubilization Test
Into 250 ml of pure water having a temperature of 26 ± 2°C which was being stirred (at 350 to 360 rpm by a magnetic stirrer) was poured 250 mg of a ground α-APM sample. Stirring and standing were repeated every 30 seconds. The time required for the sample to dissolve completely was measured.

A short description of data set [2]: Solubilization of conventionally recrystallized α-APM in water at room temperature. The data set is classed as physicochemical. The conditions noted are these: 250 mg crushed powder in 250 ml of water at room temperature, stirring and standing alternated every 30 seconds. From the text: α-APM purified y conventional recrystallization methods has the disadvantage of poor solubilization (rate of solution) in water.

The conditions of data set [3]: widely known property stated in the prior art section; cited from earlier work.

For `COC(=O)[C@H](Cc1ccccc1)NC(=O)[C@@H](N)CC(=O)O` [Comparative Example, α-L-aspartyl-L-phenylalanien emthyl ester, reference compound] (H-Asp-Phe-OMe), in data set [1], the “time required for the sample to dissolve completely” value (shortened to “time required for the sample”) was 25 min.

On to `COC(=O)[C@H](Cc1ccccc1)NC(=O)[C@@H](N)CC(=O)O` [Example 1, α-L-aspartyl-L-phenylalanien emthyl ester] (H-Asp-Phe-OMe), for which, in data set [1], the “time required for the sample” value is no more than 5 min.

`COC(=O)[C@H](Cc1ccccc1)NC(=O)[C@@H](N)CC(=O)O` [Example 2, α-L-aspartyl-L-phenylalanien emthyl ester] (H-Asp-Phe-OMe): the “time required for the sample” value in data set [1] was no more than 5 min.

Turning to `COC(=O)[C@H](Cc1ccccc1)NC(=O)[C@@H](N)CC(=O)O` [Example 3, α-L-aspartyl-L-phenylalanien emthyl ester] (H-Asp-Phe-OMe), the “time required for the sample” value in data set [1] was no more than 5 min.

For the compound `COC(=O)[C@H](Cc1ccccc1)NC(=O)[C@@H](N)CC(=O)O` [Example 4, α-L-aspartyl-L-phenylalanien emthyl ester] (H-Asp-Phe-OMe), the “time required for the sample” value in data set [1] was no more than 5 min.

On to `COC(=O)[C@H](Cc1ccccc1)NC(=O)[C@@H](N)CC(=O)O` [Example 5, α-L-aspartyl-L-phenylalanien emthyl ester] (H-Asp-Phe-OMe), for which the “time required for the sample” value in data set [1] is no more than 5 min.

On to `COC(=O)[C@H](Cc1ccccc1)NC(=O)[C@@H](N)CC(=O)O` [α-APM obtained conventionally by recrystallization from a 50] [α-L-aspartyl-L-phenylalanien emthyl ester] (H-Asp-Phe-OMe), for which the “time required to dissolve completely” value in data set [2] is “more than 15 minutes”.

As to `COC(=O)[C@H](Cc1ccccc1)NC(=O)[C@@H](N)CC(=O)O` [α-APM, α-L-aspartyl-L-phenylalanien emthyl ester] (H-Asp-Phe-OMe), in data set [3], the degree of sweetness result is on record as “about 200 times the sweetness of sucrose”.

(Values after EP0405273A2, “Method for producing readily soluble crystalline alfa-L-aspartyl-L-phenylalanine methyl ester” (MITSUI TOATSU CHEMICALS, Inc., priority 1989, dated 1991).)
